# Data: PubChem BioAssay (NCI)
#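 Briefly, cells in 96-well plates were exposed to five compound concentrations for 48 h, and endpoints were estimated by linear interpolation. At the GI50, growth is halved. The concentration for full growth arrest is given as TGI.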
# Legend:
# Assay in all cases: inhibition of tumour cell growth, NCI panel, 48 h
# [1] = tested on: NCI-H226 lung
# [2] = tested on: NCI-H23 lung
# [3] = tested on: NCI-H460 lung
# [4] = tested on: NCI-H522 lung
# [5] = tested on: NCI/ADR-RES ovarian
# [6] = tested on: OVCAR-3 ovarian
# [7] = tested on: OVCAR-4 ovarian
# [8] = tested on: OVCAR-5 ovarian
# [9] = tested on: OVCAR-8 ovarian
# [10] = tested on: PC-3 prostate
# [11] = tested on: RPMI-8226 leukemia
# [12] = tested on: RXF 393 renal
# [13] = tested on: SF-268 CNS
# [14] = tested on: SF-295 CNS
# [15] = tested on: SF-539 CNS
# [16] = tested on: SK-MEL-2 melanoma
# [17] = tested on: SK-MEL-28 melanoma
# [18] = tested on: SK-MEL-5 melanoma
# [19] = tested on: SK-OV-3 ovarian
# [20] = tested on: SN12C renal
# [21] = tested on: SNB-19 CNS
# [22] = tested on: SNB-75 CNS
# [23] = tested on: SR leukemia
# [24] = tested on: SW-620 colon
# [25] = tested on: T-47D breast
# [26] = tested on: TK-10 renal
# [27] = tested on: U251 CNS
# [28] = tested on: UACC-257 melanoma
# [29] = tested on: UACC-62 melanoma
# [30] = tested on: UO-31 renal
compound,measurement,setting,value
CNC(=O)c1cccc(N2CCc3c2ccc(NC(=O)Nc2ccc(N4CCN(C)CC4)c(C(F)(F)F)c2)c3F)c1,TGI,[1],14.6 µM
same,GI50,[2],5.97 µM
same,TGI,[2],11.8 µM
same,GI50,[3],5.27 µM
same,TGI,[3],11.6 µM
same,GI50,[4],6.46 µM
same,TGI,[4],13.9 µM
same,GI50,[5],7.02 µM
same,TGI,[5],17.5 µM
same,GI50,[6],5.04 µM
same,TGI,[6],11 µM
same,GI50,[7],5.07 µM
same,TGI,[7],11.5 µM
same,GI50,[8],5.45 µM
same,TGI,[8],10.3 µM
same,GI50,[9],7.5 µM
same,TGI,[9],16.4 µM
same,GI50,[10],3.91 µM
same,TGI,[10],12.1 µM
same,GI50,[11],1.59 µM
same,TGI,[11],> 36.5 µM
same,GI50,[12],0.976 µM
same,TGI,[12],2.65 µM
same,GI50,[13],4.87 µM
same,TGI,[13],12.3 µM
same,GI50,[14],0.717 µM
same,TGI,[14],1.7 µM
same,GI50,[15],1.18 µM
same,TGI,[15],4.94 µM
same,GI50,[16],6.15 µM
same,TGI,[16],11.8 µM
same,GI50,[17],4.99 µM
same,TGI,[17],9.81 µM
same,GI50,[18],5.43 µM
same,TGI,[18],10.4 µM
same,GI50,[19],5.93 µM
same,TGI,[19],11.7 µM
same,GI50,[20],5.81 µM
same,TGI,[20],11.1 µM
same,GI50,[21],5.48 µM
same,TGI,[21],10.7 µM
same,GI50,[22],1.25 µM
same,TGI,[22],6.93 µM
same,GI50,[23],5.74 µM
same,TGI,[23],> 36.5 µM
same,GI50,[24],1.19 µM
same,TGI,[24],5.23 µM
same,GI50,[25],6.33 µM
same,TGI,[25],19.3 µM
same,GI50,[26],6.21 µM
same,TGI,[26],11.6 µM
same,GI50,[27],3.73 µM
same,TGI,[27],8.59 µM
same,GI50,[28],6.1 µM
same,TGI,[28],12 µM
same,GI50,[29],5.9 µM
same,TGI,[29],10.8 µM
same,GI50,[30],5.86 µM
same,TGI,[30],10.8 µM
